Laboratory results taken from patent US8691800B2, “Quinoline derivatives as antibacterial agents” (Janssen Pharmaceutica N.V., priority 2005, dated 2014).
≈ marks a conversion by molar mass, not a printed value.

Experiments:
[1] = test system: Bacillus subtilis (ATCC43639); assay: Microtitre plate assay, IC90 for bacterial growth; type: cell-based; details: for IC90: Bacillus subtilis, ATCC43639, 90% inhibitory concentration for bacterial growth, read-out: IC90 BSU 43639; for IC90 BSU 43639: 90% inhibitory concentration for bacterial growth
Protocol: (§1) The bacteria used in this study were grown overnight in flasks containing 100 ml Mueller-Hinton Broth (Becton Dickinson—cat. no. 275730) in sterile de-ionized water, with shaking, at 37° C. Stocks (0.5 ml/tube) were stored at 70° C. until use. Bacteria titrations were performed in microtiter plates and colony forming units (CFUs) were determined. In general, an inoculum level of approximately 100 CFUs was used for susceptibility testing.
(§2) Anti bacterial Susceptibility Testing: IC90 Determination
(§3) Flat-bottom, sterile 96-well plastic microtiter plates were filled with 180 μl of sterile deionized water, supplemented with 0.25% BSA. Subsequently, stock solutions (7.8× final test concentration) of compounds were added in 45 μl volumes in column 2. Serial five-fold dilutions (45 μl in 180 μl) were made directly in the microtiter plates from column 2 to reach column 11. Untreated control samples with (column 1) and without (column 12) inoculum were included in each microtiter plate. Depending on the bacteria type, approximately 10 to 60 CFU per well of bacteria inoculum (100 TCID50), in a volume of 100 μl in 2.8× Mueller-Hinton broth medium, was added to the rows A to H, except column 12. The same volume of broth medium without inoculum was added to column 12 in row A to H. The cultures were incubated at 37° C. for 24 hours under a normal atmosphere (incubator with open air valve and continuous ventilation). At the end of incubation, one day after inoculation, the bacterial growth was quantitated fluorometrically. Therefore resazurin (0.6 mg/ml) was added in a volume of 20 μl to all wells 3 hours after inoculation, and the plates were re-incubated overnight. A change in colour from blue to pink indicated the growth of bacteria. The fluorescence was read in a computer-controlled fluorometer (Cytofluor Biosearch) at an excitation wavelength of 530 nm and an emission wavelength of 590 nm. The % growth inhibition achieved by the compounds was calculated according to standard methods. The IC90 (expressed in μg/ml) was defined as the 90% inhibitory concentration for bacterial growth.

[2] = test system: Enterococcus faecalis (ATCC29212); assay: Microtitre plate assay, IC90 for bacterial growth; type: cell-based; details: for IC90 EFA 29212: 90% inhibitory concentration for bacterial growth; for IC90: Enterococcus faecalis, ATCC29212, 90% inhibitory concentration for bacterial growth, read-out: IC90 EFA 29212
Protocol: as §1, §2, §3

[3] = test system: Listeria monocytogenes (ATCC49594); assay: Microtitre plate assay, IC90 for bacterial growth; type: cell-based; details: for IC90: Listeria monocytogenes, ATCC49594, 90% inhibitory concentration for bacterial growth, read-out: IC90 LMO 49594; for IC90 LMO 49594: 90% inhibitory concentration for bacterial growth
Protocol: as §1, §2, §3

[4] = test system: Pseudomonas aeruginosa (ATCC27853); assay: Microtitre plate assay, IC90 for bacterial growth; type: cell-based; details: for IC90 PAE 27853: 90% inhibitory concentration for bacterial growth; for IC90: Pseudomonas aeruginosa, ATCC27853, 90% inhibitory concentration for bacterial growth, read-out: IC90 PAE 27853
Protocol: as §1, §2, §3

[5] = test system: Staphylococcus aureus (ATCC25923); assay: Microtitre plate assay, IC90 for bacterial growth; type: cell-based; details: for IC90: Staphylococcus aureus, ATCC25923, 90% inhibitory concentration for bacterial growth, read-out: IC90 STA 25923; for IC90 STA 25923: 90% inhibitory concentration for bacterial growth
Protocol: as §1, §2, §3

[6] = test system: Staphylococcus aureus (ATCC29213); assay: Microtitre plate assay, IC90 for bacterial growth; type: cell-based; details: 90% inhibitory concentration for bacterial growth, 24 hours at 37° C., resazurin; for IC90: Staphylococcus aureus, ATCC29213, 24 h, read-out: IC90 STA 29213
Protocol: as §1, §2, §3

[7] = test system: Streptococcus mutans (ATCC33402); assay: Microtitre plate assay, IC90 for bacterial growth; type: cell-based; details: Streptococcus mutans, ATCC33402, 90% inhibitory concentration for bacterial growth, read-out: IC90 SMU 33402
Protocol: as §1, §2, §3

[8] = test system: Streptococcus pneumoniae (ATCC6305); assay: Microtitre plate assay, IC90 for bacterial growth; type: cell-based; details: for IC90 SPN 6305: 90% inhibitory concentration for bacterial growth; for IC90: Streptococcus pneumoniae, ATCC6305, 90% inhibitory concentration for bacterial growth, read-out: IC90 SPN 6305
Protocol: as §1, §2, §3

[9] = test system: Streptococcus pyogens (ATCC8668); assay: Microtitre plate assay, IC90 for bacterial growth; type: cell-based; details: for IC90 SPY 8668: 90% inhibitory concentration for bacterial growth; for IC90: Streptococcus, ATCC8668, 90% inhibitory concentration for bacterial growth, read-out: IC90 SPY 8668
Protocol: as §1, §2, §3

[10] = test system: methicilline resistant Staphylococcus aureus (MRSA) (a clinical isolate from the University of Antwerp); assay: Microtitre plate assay, IC90 for bacterial growth; type: cell-based; details: 90% inhibitory concentration for bacterial growth; for IC90: Staphylococcus aureus, MRSA, read-out: IC90 STA RMETHIC
Protocol: as §1, §2, §3

Compound | IC90 [1] | IC90 EFA 29212 [2] | IC90 [3] | IC90 PAE 27853 [4] | IC90 [5] | IC90 STA 29213 [6] | IC90 [7] | IC90 SPN 6305 [8] | IC90 SPY 8668 [9] | melting point | IC90 BSU 43639 [1] | IC90 LMO 49594 [3] | IC90 STA 25923 [5] | IC90 [8] | IC90 [9] | IC90 [2] | IC90 [4] | IC90 [6] | IC90 [10] | IC90 STA RMETHIC [10]
COc1nc2ccc(Br)cc2cc1C(c1ccccc1)C1(c2cccc3ccccc23)CCN(C)CO1 (single isomer, unassigned) [Compound 1] | 44 µg/mL (≈ 79.5 µM) | 55.4 µg/mL (≈ 100 µM) | 44 µg/mL (≈ 79.5 µM) | 44.0 µg/mL (≈ 79.5 µM) | 55.4 µg/mL (≈ 100 µM) | 55.4 µg/mL (≈ 100 µM) | 44 µg/mL (≈ 79.5 µM) | 5.5 µg/mL (≈ 9.94 µM) | 44.0 µg/mL (≈ 79.5 µM) | 112 °C | – | – | – | – | – | – | – | – | 55.4 µg/mL (≈ 100 µM) | –
COc1nc2ccc(Cl)cc2cc1C(c1ccccc1)C1(c2cccc3ccccc23)CCN(C)CO1 (single isomer, unassigned) [Compound 3] | – | – | – | – | – | 12.8 µg/mL (≈ 25.1 µM) | – | – | – | – | – | – | – | – | – | – | – | – | – | –
COc1ccc2nc(OC)c(C(c3ccccc3)C3(c4cccc5ccccc45)CCN(C)CO3)cc2c1 (single isomer, unassigned) [Compound 4] | – | 50.5 µg/mL (≈ 100 µM) | – | 50.5 µg/mL (≈ 100 µM) | – | 50.5 µg/mL (≈ 100 µM) | 20.1 µg/mL (≈ 39.8 µM) | – | – | – | 50.5 µg/mL (≈ 100 µM) | 25.3 µg/mL (≈ 50.1 µM) | 50.5 µg/mL (≈ 100 µM) | 1 µg/mL (≈ 1.98 µM) | 20.1 µg/mL (≈ 39.8 µM) | – | – | – | 50.5 µg/mL (≈ 100 µM) | –
COc1nc2ccc(C)cc2cc1C(c1ccccc1)C1(c2cccc3ccccc23)CCN(C)CO1 (single isomer, unassigned) [Compound 5] | 48.9 µg/mL (≈ 100 µM) | – | 48.9 µg/mL (≈ 100 µM) | – | 48.9 µg/mL (≈ 100 µM) | – | 24.5 µg/mL (≈ 50.1 µM) | 10.9 µg/mL (≈ 22.3 µM) | 8.7 µg/mL (≈ 17.8 µM) | – | – | – | – | – | – | 48.9 µg/mL (≈ 100 µM) | 48.9 µg/mL (≈ 100 µM) | 48.9 µg/mL (≈ 100 µM) | 48.9 µg/mL (≈ 100 µM) | –

Now from value to molecule, other results behind:

IC90 [1] | IC90 EFA 29212 [2] | IC90 [3] | IC90 PAE 27853 [4] | IC90 [5] | IC90 STA 29213 [6] | IC90 [7] | IC90 SPN 6305 [8] | IC90 SPY 8668 [9] | melting point | IC90 BSU 43639 [1] | IC90 LMO 49594 [3] | IC90 STA 25923 [5] | IC90 [8] | IC90 [9] | IC90 [2] | IC90 [4] | IC90 [6] | Compound | IC90 [10] | IC90 STA RMETHIC [10]
– | 55.1 µg/mL (≈ 100 µM) | – | 55.1 µg/mL (≈ 100 µM) | – | 55.1 µg/mL (≈ 100 µM) | – | 5.5 µg/mL (≈ 9.99 µM) | 55.1 µg/mL (≈ 100 µM) | – | 55.1 µg/mL (≈ 100 µM) | 55.1 µg/mL (≈ 100 µM) | 55.1 µg/mL (≈ 100 µM) | – | – | – | – | – | COc1nc2ccc(-c3ccccc3)cc2cc1C(c1ccccc1)C1(c2cccc3ccccc23)CCN(C)CO1 (single isomer, unassigned) [Compound 2] | – | 55.1 µg/mL (≈ 100 µM)
13.6 µg/mL (≈ 25.2 µM) | – | – | – | 13.6 µg/mL (≈ 25.2 µM) | – | – | 2.7 µg/mL (≈ 4.99 µM) | – | – | – | – | – | – | 13.6 µg/mL (≈ 25.2 µM) | 13.6 µg/mL (≈ 25.2 µM) | 13.6 µg/mL (≈ 25.2 µM) | 13.6 µg/mL (≈ 25.2 µM) | COc1nc2ccc(-c3ccco3)cc2cc1C(c1ccccc1)C1(c2cccc3ccccc23)CCN(C)CO1 (single isomer, unassigned) [Compound 6] | – | 54.1 µg/mL (≈ 100 µM)
– | 13.9 µg/mL (≈ 25.1 µM) | – | 13.9 µg/mL (≈ 25.1 µM) | – | 13.9 µg/mL (≈ 25.1 µM) | – | 13.9 µg/mL (≈ 25.1 µM) | 13.9 µg/mL (≈ 25.1 µM) | 108 °C | – | – | – | – | – | – | – | – | COc1nc2ccc(Br)cc2cc1C(c1ccccc1)C1(c2cccc3ccccc23)CCN(C)CO1 (single isomer, unassigned) [Compound 7] | – | –
55.1 µg/mL (≈ 100 µM) | – | 55.1 µg/mL (≈ 100 µM) | – | 55.1 µg/mL (≈ 100 µM) | – | – | – | – | – | – | – | – | 4.9 µg/mL (≈ 8.9 µM) | 55.1 µg/mL (≈ 100 µM) | 55.1 µg/mL (≈ 100 µM) | 55.1 µg/mL (≈ 100 µM) | 55.1 µg/mL (≈ 100 µM) | COc1nc2ccc(-c3ccccc3)cc2cc1C(c1ccccc1)C1(c2cccc3ccccc23)CCN(C)CO1 (single isomer, unassigned) [Compound 9] | 55.1 µg/mL (≈ 100 µM) | –
